For seven compounds, IC50 results are on record in ChEMBL document CHEMBL3397010, “Design, synthesis, and biological evaluation of air-stable nafuredin-γ analogs as complex I inhibitors” (Bioorg Med Chem, 2015).

Structures are written as SMILES.

The assay in a line: Inhibition of electron transport protein complex 1 in Ascaris suum mitochondria assessed as reduction in rhodoquinol-fumarate reductase activity by measuring NADH oxidation using NADH, sodium fumarate and decyl-rhodoquinone.
Turning to `CC[C@H](C)/C=C/C=C(\C)C[C@@H](C)/C=C/C=C/[C@@H](O)[C@]1(C)C=C(O)C(=O)O1`, the IC50 came out at 0.006 µM.

Turning to `CC[C@H](C)CC/C=C(\C)C[C@@H](C)CC/C=C/[C@@H](O)[C@]1(C)CCC(=O)O1`, the IC50 is 0.55 µM.

As to `CC(C)=CCC/C(C)=C/CC/C(C)=C/CC[C@@H](O)[C@]1(C)CCCO1`, the IC50 was 0.5 µM.

Turning to `C/C(=C\CCC(C)C)C[C@@H](C)CC/C=C/[C@@H](O)[C@]1(C)CCC(=O)O1`, the IC50 turned out to be 0.3 µM.

With `CC(C)=CCC/C(C)=C/CC/C(C)=C/CC[C@@H](O)[C@]1(C)CCC(=O)O1`, the IC50 was determined as 0.82 µM.

Consider `C/C(=C\CCC(C)C)CCCC/C=C/[C@@H](O)[C@]1(C)CCC(=O)O1`, for which the IC50 was 0.34 µM.

For `CCc1ccc2ccc(Cc3cccc(/C=C/[C@@H](O)[C@]4(C)CCC(=O)O4)c3)cc2c1`, the IC50 worked out at 0.55 µM.

The IC50 is the midpoint of a concentration-inhibition curve.
